Data: US4284786A, “5-Methylisoxazole-4-carboxylic-(4-trifluoromethyl)-anilide” (priority 1978, dated 1981)
Where two headings read alike, the source gives them in different places.

Experiments:
[1] = tested on: adjuvant arthritis; experiment: Adjuvant arthritis, preventive experiment (Pearson); format: in vivo, male rats, Wistar-Lewis strain; conditions: for ED50: Rattus norvegicus, oral, daily days 1-17, reduction in paw volume increase
Protocol: (§1) The investigations were carried out by the method of Pearson (Arthrit.Rheum. 2, 440 (1959)). The experimental animals used were male rats of a Wistar-Lewis strain, having a body weight of between 130 and 200 g. The compounds to be compared were administered orally, daily from the 1st to the 17th day of the experiment. Animals of the control group were given the solvent only. For each dosage, and in the control group, a group of 8 animals was used. The criterion of the activity was the reduction in the paw volume increase compared to the untreated control group. The ED50 values were determined graphically from the dose/effect curve.

[2] = tested on: adjuvant arthritis; experiment: Adjuvant arthritis, Perper modification; format: in vivo, male rats, Wistar-Lewis strain; conditions: for ED50: Rattus norvegicus, 504 h, oral, days 1-12, paw volume on 21st day, read-out: Adjuvant arthritis Perper (2) ED50; for Adjuvant arthritis Perper (2) ED50: result in words
Protocol: as §1
The experimental animals and experimental methods were as under 1., but the animals were only treated from the 1st to the 12th day of the experiment; after a treatment-free interval of 9 days, the paw volume was determined on the 21st day.

[3] = tested on: allergic encephalomyelitis; experiment: Allergic encephalomyelitis (Levine); format: in vivo, male rats, Wistar-Lewis strain; conditions: for Allergic encephalomyelitis (3) % inhibition: days 1-12, index on 11th day
Protocol: Known non-steroid antiphlogistic agents are here at most very slightly active.
The investigations were carried out by the method of Levine (Arch.int.Pharmacodyn. 230, 309 (1977)). The experimental animals used were male rats of a Wistar-Lewis strain having a body weight of between 180 and 220 g. The encephalomyelitis was induced by injection of complete Freund adjuvant to which freshly withdrawn homogenized rat spinal marrow extract and Bordetella pertussis vaccine had been added. The compounds to be compared were administered orally once a day from the 1st to the 12th day. For each dose, and for the control group, a group of 10 animals was used. From the 7th day of the experiment, the paralysis symptoms were grouped together daily in one index with the mortality and the change of body weight. […]
loss of 20 g of body weight in each case: 1 point […]
hindquarters paralysis: 3 points paralysis of the entire body: 5 points
The assessment criterion was the percentage inhibition of the index compared to untreated control animals on the 11th day of the experiment. On conclusion of the experiment, blood was taken from the surviving animals to determine the erythrocyte count and leucocyte count as well as the hematocrit.

[4] = in vivo; set-up: species or system male Sprague-Dawley rats; conditions: rat, in vivo; for selectivity ratio: acute UD50 / ED50, read-out: Therapeutic index acute UD50/ED50
Protocol: (§2) The investigations were carried out in groups of 10 male Sprague-Dawley rats having a body weight of 200-300 g. 48 hours before administration of the compounds to be compared, and up to the time of killing the animals, food was withheld, but there was free access to drinking water. The rats were killed 24 hours after oral administration, and the stomach was removed under running water and inspected for lesions of the mucous membrane. All macroscopically visible lesions were rated as ulcers.

[5] = Sub-acute ulcerogenic action; format: in vivo, male Sprague-Dawley rats; conditions: rat, in vivo, po; sub-acute UD50 / ED50; read-out: Therapeutic index sub-acute UD50/ED50
Protocol: as §2, with “ulcers. The proportion of animals with ulcers at each dose was determined, as was the UD50 using the method of Litchfield and Wilcoxon (J.Pharmacol.exp.Ther. 96, 99 (1949)).” for “ulcers.”
(§3) The experimental animals and the experimental method were as under 4, with the following modification: the compounds to be compared were administered orally once daily for 4 days to normally fed rats and the animals were killed on the 5th day, after food had been withheld for 24 hours. According to Shriver, this method gives more informative results than a single administration, since medicamentous therapy of rheumatic patients also requires repeated treatment (Toxicology and Appl. Pharmacology 32, 73 (1975)).

[6] = tested on: stomach mucous membrane; experiment: Sub-acute ulcerogenic action; format: in vivo, male Sprague-Dawley rats; conditions: sub-acute, relative to compound B
Protocol: as §2, with “ulcers. The proportion of animals with ulcers at each dose was determined, as was the UD50 using the method of Litchfield and Wilcoxon (J.Pharmacol.exp.Ther. 96, 99 (1949)).” for “ulcers.”
as §3

[7] = Acute toxicity, intraperitoneal administration to mice; set-up: species or system NMRI mice; conditions: mouse, in vivo, ip
Excerpt: (§4) 6 animals were used per dose.

[8] = in vivo; conditions: rat, in vivo, po
Protocol: (§5) The acute toxicity were determined by standard methods on NMRI mice and on rats of the Wister and Sprague-Dawley strains. 6 animals were used per dose. The LD50 values were determined by the method of Litchfield and Wilcoxon.

[9] = tested on: rats; experiment: in vivo; conditions: oral toxicity, relative to compound B
Protocol: as §5

[10] = tested on: stomach mucous membrane; experiment: in vivo; set-up: species or system male Sprague-Dawley rats; conditions: single oral dose, fasted rats, 24 hours
Protocol: as §2

[11] = Acute toxicity, oral administration, mice; conditions: mouse, in vivo; for selectivity ratio: oral LD50 in mice / ED50, read-out: Therapeutic index LD50/ED50
Excerpt: as §4

[12] = in the therapeutic dosage range

Cc1oncc1C(=O)Nc1ccc(C(F)(F)F)cc1 [compound A, 5-Methylisoxazole-4-carboxylic acid 4-trifluoromethyl-anilide]
activity times greater than that of compound B ([1]; ED50, adjuvant arthritis, preventive, relative to compound B): 6.5 times | ED50 [1]: 2.3 mg/kg | ED50 [2]: 4.5 mg/kg | inhibition of immunopathological processes, Perper adjuvant arthritis test [2, 12]: inhibits immunopathological processes | Allergic encephalomyelitis (3) % inhibition ([3]; dose 10 mg/kg oral): 100% | inhibition of immunopathological processes, allergic encephalomyelitis test [3, 12]: inhibits immunopathological processes | 100% inhibition of the paralysis symptoms in allergic encephalomyelitis without gastro-intestinal bleeding ([3]; rat, in vivo): possible | TD50 at 24 h ([4]; po): 57 mg/kg | selectivity ratio ([4]; po): 25 | selectivity ratio [5]: 33 | therapeutic index (UD50/ED50; sub-acute) times greater than that of compound B [6]: 4.1 times | LD50 [7]: 150 to 300 mg/kg | LD50 [8]: 235 mg/kg | selectivity ratio [8]: 100 | therapeutic range (LD50/ED50) times greater than that of compound B [9]: 2.4 times

Cc1oncc1C(=O)Nc1ccc(F)cc1 [compound B, 5-methylisoxazole-4-carboxylic acid 4-fluoroanilide]
ED50 [1]: 15 mg/kg | ED50 [2]: 25 mg/kg | Allergic encephalomyelitis (3) % inhibition ([3]; dose 25 mg/kg oral): 43% | Allergic encephalomyelitis (3): finding printed in the % inhibition column ([3]; dose 50 mg/kg oral): anaemia | selectivity ratio ([4]; po): 17 | Ulcerogenic character acute UD50 [10]: 250 mg/kg | selectivity ratio [5]: 8 | LD50 [7]: 200 to 400 mg/kg | LD50 [8]: 620 mg/kg | selectivity ratio [8]: 41

Cc1oncc1C(=O)Nc1cccc(C(F)(F)F)c1 [compound C, 5-methylixoazole-4-carboxylic acid 3-trifluoromethylanilide]
ED50 [1]: > 50 mg/kg | Adjuvant arthritis Perper (2) ED50 ([2]; up to 20.0 (mg/kg)): inactive | Allergic encephalomyelitis (3) % inhibition ([3]; dose 10 mg/kg oral): 0% | TD50 at 24 h ([4]; po): ~600 mg/kg | selectivity ratio ([4]; po): < 12 | LD50 [7]: 100 to 250 mg/kg | LD50 ([11]; po): 740 mg/kg | selectivity ratio [11]: < 15

Cc1oncc1C(=O)Nc1cc(C(F)(F)F)cc(C(F)(F)F)c1 [compound D, 5-methylisoxazole-4-carboxylic acid 3,5-bis-trifluoromethylanilide]
ED50 [1]: ~50 mg/kg | ED50 [2]: > 50 mg/kg | selectivity ratio ([4]; po): ~2 | TD50 at 24 h ([4]; single oral dose, fasted rats, 24 hours, read-out: Ulcerogenic character acute UD50): 100 mg/kg | LD50 [7]: > 500 mg/kg | selectivity ratio [11]: 50

Cc1oncc1C(=O)Nc1ccccc1C(F)(F)F [compound E, 5-methylisoxazole-4-carboxylic acid 2-trifluoromethylanilide]
ED50 [1]: > 50 mg/kg | Adjuvant arthritis Perper (2) ED50 ([2]; up to 20.0 (mg/kg)): inactive | Allergic encephalomyelitis (3) % inhibition ([3]; dose 10 mg/kg oral): 0% | TD50 at 24 h ([4]; po): 350 mg/kg | selectivity ratio ([4]; po): < 7 | LD50 [7]: 300 to 6000 mg/kg

CCCCC1C(=O)N(c2ccccc2)N(c2ccccc2)C1=O [compound F, phenylbutazone]
ED50 [1]: 37 mg/kg | Adjuvant arthritis Perper (2) ED50 ([2]; up to 75 (mg/kg)): inactive | Allergic encephalomyelitis (3) % inhibition ([3]; dose 75 mg/kg oral): 0%
